These are literature values, as cited in patent publication US8552052B2, “Use of diindolylmethane-related indoles for the treatment and prevention of respiratory syncytial virus associated conditions” (BioResponse, L.L.C., priority 2004, dated 2013).

This data set concerns RSV. As to conditions: monthly intramuscular injections; cited from earlier work.

Regarding “Palivizumab: IgG1 monoclonal antibody that selectively binds to the RSV surface glycoprotein F”, the “reduction of the rate of hospitalization of at-risk infants” value is recorded as “about 55%”.
